The text below walks through data of US12503475B2 (Centessa Pharmaceuticals (UK) Limited, priority 2020, dated 2025).

This assay concerns the target T1, human orexin type 2 receptor (hOX2R) (Homo sapiens, UniProt O43614).
T1 construct: expressed in transfected cells
T1 sequence (O43614 1-444): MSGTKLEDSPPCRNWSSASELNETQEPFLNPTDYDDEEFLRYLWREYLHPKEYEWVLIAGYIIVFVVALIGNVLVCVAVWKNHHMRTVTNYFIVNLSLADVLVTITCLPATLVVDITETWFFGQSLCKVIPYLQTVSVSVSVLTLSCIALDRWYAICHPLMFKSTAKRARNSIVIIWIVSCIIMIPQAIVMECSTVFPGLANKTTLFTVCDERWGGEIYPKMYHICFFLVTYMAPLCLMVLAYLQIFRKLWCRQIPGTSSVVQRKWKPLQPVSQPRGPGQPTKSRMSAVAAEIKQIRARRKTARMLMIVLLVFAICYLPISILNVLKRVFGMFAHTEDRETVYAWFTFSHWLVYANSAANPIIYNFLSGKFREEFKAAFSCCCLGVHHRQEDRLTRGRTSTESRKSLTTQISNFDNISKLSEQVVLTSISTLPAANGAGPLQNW
As to the kind of experiment: Measurement of orexin type 2 receptor agonist activity (FLIPR calcium fluorescence). Type of assay: cell-based. To be noted: CHO cells expressing hOX2R, FLIPR calcium fluorescence; for EC50: read-out: hOx2 pEC50 (converted); for Emax: CHO, read-out: hOx2 Emax (%). The method in brief:
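Agonism was read as fluorescence in cells stably expressing human OX2R. E. is the response at 10 μM relative to orexin A as full agonist (100%).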

Turning to `O=C(N1CC2(CC2)C(NS(=O)(=O)CF)C1Cc1cccc(-c2ccccc2)c1F)C1(O)CCC1` (racemic) [Compound 108, 1-fluoro-N-(6-((2-fluoro-[1,1′-biphenyl]-3-yl)methyl)-5-(1-hydroxycyclobutane-1-carbonyl)-5-azaspiro[2.4]heptan-7-yl)methanesulfonamide], the EC50 was 0.0794 to 1 nM and the Emax was 90 to 100%.

For the molecule `[2H]c1c([2H])c([2H])c(-c2cccc(C[C@H]3[C@@H](NS(=O)(=O)C(F)F)C4(CC4)CN3C(=O)[C@H]3CCO3)c2F)c([2H])c1[2H]` [Compound 173, 1,1-difluoro-N-((6S,7S)-6-((2-fluoro-[1,1′-biphenyl]-3-yl-2′,3′,4′,5′,6′-d5)methyl)-5-((R)-oxetane-2-carbonyl)-5-azaspiro[2.4]heptan-7-yl)methanesulfonamide], the EC50 was 1 to 10 nM and the maximum response (Emax) fell in the range of 90 to 100%.

Regarding `CS(=O)(=O)N[C@@H]1[C@H](Cc2cccc(-c3ccccc3)c2)N(C(=O)C2(C#N)CCC2)CC12CC2` (racemic) [Compound 295], the EC50 was 10 to 100 nM and the Emax lay in the range of 90 to 100%.

Turning to `O=C([C@H]1C[C@H](F)C1)N1CC2(CC2)[C@H](NS(=O)(=O)C(F)F)[C@@H]1Cc1cccc(-c2ccccc2)c1F` [Compound 182, 1,1-difluoro-N-((6S,7S)-6-((2-fluoro-[1,1′-biphenyl]-3-yl)methyl)-5-((1r,3r)-3-fluorocyclobutane-1-carbonyl)-5-azaspiro[2.4]heptan-7-yl)methanesulfonamide], the EC50 was 1 to 10 nM and the Emax was in the range of 90 to 100%.

For `CS(=O)(=O)N[C@@H]1[C@H](Cc2cccc(-c3ccccc3)c2F)N(C(=O)NC23CC(F)(C2)C3)CC12CC2` [Compound 319, (6S,7S)-6-((2-fluoro-[1,1′-biphenyl]-3-yl)methyl)-N-(3-fluorobicyclo[1.1.1]pentan-1-yl)-7-(methylsulfonamido)-5-azaspiro[2.4]heptane-5-carboxamide], the EC50 is 10 to 100 nM and the maximal response (Emax) lay within 90 to 100%.

With `CC[C@@H](O)C(=O)N1CC2(CC2)[C@H](NS(C)(=O)=O)[C@@H]1Cc1cccc(-c2ccccc2)c1` (racemic) [Compound 300], the EC50 is 10 to 100 nM and the maximal response (Emax) was in the range of 90 to 100%.

As to `CC(C)C(=O)N1CC2(CC2)[C@H](NS(=O)(=O)N(C)C)[C@@H]1Cc1cccc(-c2ccccc2)c1` (racemic) [Compound 304], the EC50 was 10 to 100 nM and the maximum response (Emax) lay in the range of 90 to 100%.

Take `O=C(NCC(F)F)N1CC2(CC2)[C@H](NS(=O)(=O)CF)[C@@H]1Cc1cc(F)cc(-c2ccccc2)c1F` [Compound 191, (6S,7S)-6-((2,5-difluoro-[1,1′-biphenyl]-3-yl)methyl)-N-(2,2-difluoroethyl)-7-((fluoromethyl)sulfonamido)-5-azaspiro[2.4]heptane-5-carboxamide]: the EC50 is 1 to 10 nM and the Emax fell in the range of 90 to 100%.

As to `N#C[C@]1(C(=O)N2CC3(CC3)[C@H](NS(=O)(=O)CF)[C@@H]2Cc2cccc(-c3ccccc3)c2F)CCO1` [Compound 226, N-((6S,7S)-5-((S)-2-cyanooxetane-2-carbonyl)-6-((2-fluoro-[1,1′-biphenyl]-3-yl)methyl)-5-azaspiro[2.4]heptan-7-yl)-1-fluoromethanesulfonamide], the EC50 is 1 to 10 nM and the Emax was 90 to 100%.

Take `C[C@@H](CF)NC(=O)N1CC2(CC2)[C@H](NS(C)(=O)=O)[C@@H]1Cc1cccc(-c2ccccc2)c1F` [Compound 337, (6S,7S)-6-((2-fluoro-[1,1′-biphenyl]-3-yl)methyl)-N-((S)-1-fluoropropan-2-yl)-7-(methylsulfonamido)-5-azaspiro[2.4]heptane-5-carboxamide]: the EC50 was 1 to 10 nM and the maximal effect (Emax) fell in the range of 90 to 100%.

As for `C[C@H](CF)NC(=O)N1CC2(CC2)[C@H](NS(=O)(=O)CF)[C@@H]1Cc1cc(F)cc(-c2ccccc2)c1F` [Compound 375, (6S,7S)-6-((2,5-difluoro-[1,1′-biphenyl]-3-yl)methyl)-7-((fluoromethyl)sulfonamido)-N-((R)-1-fluoropropan-2-yl)-5-azaspiro[2.4]heptane-5-carboxamide], the EC50 is 0.0794 to 1 nM and the maximal response (Emax) was in the range of 90 to 100%.

In the case of `C[C@H](F)C(=O)N1CC2(CC2)[C@H](NS(=O)(=O)CF)[C@@H]1Cc1cc(F)cc(-c2cccc(F)c2)c1F` [Compound 393, 1-fluoro-N-((6S,7S)-5-((S)-2-fluoropropanoyl)-6-((2,3′,5-trifluoro-[1,1′-biphenyl]-3-yl)methyl)-5-azaspiro[2.4]heptan-7-yl)methanesulfonamide], the EC50 is 1 to 10 nM and the maximum response (Emax) is 90 to 100%.

Take `CC(C)S(=O)(=O)N[C@@H]1[C@H](Cc2cc(F)cc(-c3ccccc3)c2F)N(C(=O)[C@H]2CCO2)CC12CC2` [Compound 396]: the EC50 is 1 to 10 nM and the maximal response (Emax) lay within 90 to 100%.

`O=C(NC(CF)CF)N1CC2(CC2)[C@H](NS(=O)(=O)CF)[C@@H]1Cc1cccc(-c2ccccc2)c1F` [Compound 369, (6S,7S)-N-(1,3-difluoropropan-2-yl)-6-((2-fluoro-[1,1′-biphenyl]-3-yl)methyl)-7-((fluoromethyl)sulfonamido)-5-azaspiro[2.4]heptane-5-carboxamide]: the EC50 is 1 to 10 nM and the maximum response (Emax) fell in the range of 90 to 100%.

On to `C[C@@H](F)C(=O)N1CC2(CC2)[C@H](NS(=O)(=O)CF)[C@@H]1Cc1cc(F)cc(-c2ccccc2)c1F` [Compound 418], for which the EC50 was 1 to 10 nM and the Emax was in the range of 90 to 100%.

Consider `CS(=O)(=O)N[C@@H]1[C@H](Cc2cccc(-c3ccccc3)c2F)N(C(=O)[C@@H]2CCO2)CC12CC2` [Compound 20, N-((6S,7S)-6-((2-fluoro-[1,1′-biphenyl]-3-yl)methyl)-5-((S)-oxetane-2-carbonyl)-5-azaspiro[2.4]heptan-7-yl)methanesulfonamide], for which the EC50 was 10 to 100 nM and the maximum response (Emax) fell in the range of 90 to 100%.

Regarding `O=C(NCC1(F)CC1)N1CC2(CC2)[C@H](NS(=O)(=O)CF)[C@@H]1Cc1cccc(-c2cc(F)cc(F)c2)c1F` [Compound 412, (6S,7S)-N-((1-fluorocyclopropyl)methyl)-7-((fluoromethyl)sulfonamido)-6-((2,3′,5′-trifluoro-[1,1′-biphenyl]-3-yl)methyl)-5-azaspiro[2.4]heptane-5-carboxamide], the EC50 is 1 to 10 nM and the Emax lay within 90 to 100%.

`CC(C)(F)C(=O)N1CC2(CC2)C(NS(C)(=O)=O)C1Cc1cccc(-c2ccccc2)c1` (racemic) [Compound 13, N-(6-([1,1′-biphenyl]-3-ylmethyl)-5-(2-fluoro-2-methylpropanoyl)-5-azaspiro[2.4]heptan-7-yl)methanesulfonamide]: the EC50 is 100 to 1000 nM and the Emax fell in the range of 80 to 90%.

As for `CS(=O)(=O)NC1C(Cc2cccc(-c3ccccc3)c2)N(C(=O)N2CC(F)(F)C2)CC12CC2` (racemic) [Compound 10, N-(6-([1,1′-biphenyl]-3-ylmethyl)-5-(3,3-difluoroazetidine-1-carbonyl)-5-azaspiro[2.4]heptan-7-yl)methanesulfonamide], the EC50 was 100 to 1000 nM and the maximal response (Emax) was in the range of 90 to 100%.

As for `O=C([C@@H](O)C1CC1)N1CC2(CC2)[C@H](NS(=O)(=O)C(F)F)[C@@H]1Cc1cccc(-c2cc(F)cc(F)c2)c1F` [Compound 377, N-((6S,7S)-5-((S)-2-cyclopropyl-2-hydroxyacetyl)-6-((2,3′,5′-trifluoro-[1,1′-biphenyl]-3-yl)methyl)-5-azaspiro[2.4]heptan-7-yl)-1,1-difluoromethanesulfonamide], the EC50 was 0.0794 to 1 nM and the maximum response (Emax) was in the range of 90 to 100%.

For `CCCS(=O)(=O)N[C@@H]1[C@H](Cc2cccc(-c3ccccc3)c2)N(C(=O)[C@H]2CCO2)CC12CC2` [Compound 310, N-((6S,7S)-6-([1,1′-biphenyl]-3-ylmethyl)-5-((R)-oxetane-2-carbonyl)-5-azaspiro[2.4]heptan-7-yl)propane-1-sulfonamide], the EC50 is 10 to 100 nM and the maximal response (Emax) was in the range of 90 to 100%.

Take `CS(=O)(=O)N[C@@H]1[C@H](Cc2cccc(-c3ccccc3)c2F)N(C(=O)C2(O)CCC2)CC12CC2` [Compound 68, N-((6S,7S)-6-((2-fluoro-[1,1′-biphenyl]-3-yl)methyl)-5-(1-hydroxycyclobutane-1-carbonyl)-5-azaspiro[2.4]heptan-7-yl)methanesulfonamide]: the EC50 was 0.0794 to 1 nM and the maximum response (Emax) was 90 to 100%.

Regarding `O=C(N1CC(F)C1)N1CC2(CC2)C(NS(=O)(=O)CF)C1Cc1cccc(-c2ccccc2)c1F` (racemic) [Compound 105, 1-fluoro-N-(6-((2-fluoro-[1,1′-biphenyl]-3-yl)methyl)-5-(3-fluoroazetidine-1-carbonyl)-5-azaspiro[2.4]heptan-7-yl)methanesulfonamide], the EC50 was 1 to 10 nM and the maximal response (Emax) lay in the range of 90 to 100%.

For `CC(C)C(=O)N1CC2(CC2)C(NS(C)(=O)=O)C1Cc1cccc(-c2cccc(F)c2)c1` (racemic) [Compound 8, N-(6-((3′-fluoro-[1,1′-biphenyl]-3-yl)methyl)-5-isobutyryl-5-azaspiro[2.4]heptan-7-yl)methanesulfonamide], the EC50 was 1 to 10 nM and the maximal response (Emax) is 90 to 100%.
